Assay results taken from patent US20070259866A1, “Method of Adenovirus, HIV and HPV Prophylaxis” (priority 1999, published 2007).
Several values for one entry are separate records, joined by “and”; a condition that tells them apart may be missing. Equal values may be shown once. Entries after “also recorded” stand apart in the source; their conditions may differ.

Legend:
[1] = tested on: NL-HX-ADA (molecularly cloned macrophage-tropic type of HIV-1); assay: Extended dose response for inactivation of HIV-1 by CTC96, fluorescent focus assay in PBMCs; type: cell-based; settings: 1 hour
Description: (§1) • Stock virus: NL-HX-ADA ˜5.5 μg/ml p24 (This is a molecularly cloned macrophage-tropic type of HIV-1). Virus was used to infect cells at 1:4,000 final dilution (˜1.4 ng/ml p24). Stock CTC-96: 10 mg/ml prepared directly in RPMI 1640 Method: Concentrated stock solution of virus was treated for 1 hour with equal volume of medium containing the drug at the indicated concentrations (1:2 dilution). The virus/drug mixture was then diluted 1,000-fold (1:2,000 dilution) and then added to an equal volume of PHA-activated humans PBMCs (1:4,000 final dilution) to allow virus replication to occur. The extent of infection was measured after 4 days by a fluorescent focus assay and compared to that of a control culture not containing any drug.

[2] = Mouse mortality, survival and weight change in the HPV-11 xenograft SCID mouse experiment; type: in vivo, scid/scid mice; settings: for Mouse Status at the end of the Experiment: Alive / Mouse Status at the end of the Experiment: Dead: of 12 mice
Description: Each experiment was done in quadruplicate. Twelve mice were used in each replicate. For each replicate, the four treatment groups were made of 3 mice (3 animals per cage). Each mouse received under the skin of each flank one HPV-11-infected foreskin fragment. Two foreskin donors were used, one for the fragments implanted under the left flank and a different one for the fragments implanted under the right flank. The HPV-11-infected grafts were left to grow for 12 weeks, while the mice weights were monitored every other week. At the end of the 12 weeks, the animals were sacrificed and the grafts recovered, measured and processed.
Six to 7 week old male scid/scid mice were used
The animals were monitored weekly. They were weighed at the time of grafting, and every other week during the 12 weeks of the experiment.
Animals were to be prematurely euthanitized if during monitoring any of the following criteria were met: • greater than 10% weight loss; • bleeding or bruising; • inability to maintain righting reflex; • inability to move about; • inability to eat or drink; • tumor greater than 30% of the animal's body weight.
The animals were otherwise sacrificed by cervical dislocation 12 weeks after graft implantation. Length, width, and height of the graft were measured and recorded. The graft were then removed and split in at least two parts. One part was fixed in buffered formalin. The other part was either left as is, or subdivided for subsequent analyses in as many fragments as size permitted. These fragments were placed in a sterile labelled vial and frozen in liquid nitrogen before being transferred to a −80° C. freezer.
Those animals dying unexpectedly before the date of the scheduled euthanasia had their grafts measured and fixed in formalin, if body decomposition was not too advanced.

[3] = tested on: NL-HX-ADA (macrophage-tropic isolate) Virus; assay: Control infections: untreated NL-HX-ADA virus added to PBMC cultures containing the final dilution of the drug; type: cell-based, Human Immunodeficiency Virus (HIV); settings: for Control culture: # infected cells/area (~500 cells) / Control culture: Average # infected cells/area: untreated virus; for Control culture: # infected cells/area (~500 cells): single area counts
Description: After the 1 hr treatment period, the virus-drug solutions were diluted 1:1,000 with complete medium, and then mixed with an equal volume of Peripheral Blood Mononucleocyte (PBMC) cells, for a final dilution of virus and drug of 1:4,000.
The infected cultures were then incubated without any washing or other changes in media for 4 days (for the M-tropic NL-HX-ADA type) and 8 days (for the T-tropic NL-HX type). The cultures were then assayed for infection using standard fluorescent focus assays to quantitate infected cells.
Control infections were performed by adding untreated viruses at a p24 concentration of 1 ng/ml into cultures containing the final dilution of the drug. This controlled for any residual effect the diluted drug may have on the health of the PBMC culture and their ability to replicate virus.

[4] = tested on: NL-HX-ADA (molecularly cloned macrophage-tropic type of HIV-1); assay: Time course of anti-HIV effect of CTC96 (neutralization vs contact time); type: cell-based
Description: as §1
Using similar conditions as described above, virus was incubated with 0.625 mg/ml CTC96 for the indicated time period before 1,000-fold dilution and addition to cells.
Virus was incubated with four different concentrations of CTC96 for the indicated time periods, and then the extent of inactivation tested as previously described. Numbers in parentheses indicate results obtained in the initial analysis for the lowest dose ([…]) of CTC96.

[5] = [CTC96] 0.625 μg/ml, contact time 2 minutes
[6] = [CTC96] 0.625 μg/ml, contact time 4 minutes
[7] = [CTC96] 0.625 μg/ml, contact time 8 minutes
[8] = [CTC96] 0.625 μg/ml, contact time 16 minutes
[9] = [CTC96] 0.625 μg/ml, contact time 32 minutes
[10] = [CTC96] 0.625 μg/ml, contact time 64 minutes

## CC1=CC(C)=[N+]2CC[N+]3=C(C)C=C(C)[O][Co-4]23([n+]2cc[nH]c2C)([n+]2cc[nH]c2C)[O]1.[Br-] [Compound 96]
[1]; Batch A: [CTC96] during incubation with virus 5 mg/ml (initial 10 mg/ml; after final dilution 2.5 ng/ml)
  % Neutralization: 100%
[1]; Batch B: [CTC96] during incubation with virus 2.5 mg/ml (initial 5 mg/ml; after final dilution 1.25 ng/ml)
  % Neutralization: 100%
[1]; Batch C: [CTC96] during incubation with virus 1.25 mg/ml (initial 2.5 mg/ml; after final dilution 0.61 ng/ml)
  % Neutralization: 100%
[1]; Batch D: [CTC96] during incubation with virus 0.625 mg/ml (initial 1.25 mg/ml; after final dilution 0.31 ng/ml)
  % Neutralization: 100%
[1]; Batch E: [CTC96] during incubation with virus 0.312 mg/ml (initial 0.6 mg/ml; after final dilution 0.156 ng/ml)
  % Neutralization: 83%
[1]; Batch F: [CTC96] during incubation with virus 0.156 mg/ml (initial 0.3 mg/ml; after final dilution 0.078 ng/ml)
  % Neutralization: 63%
[1]; Batch G: [CTC96] during incubation with virus 0.078 mg/ml (initial 0.156 mg/ml; after final dilution 0.039 ng/ml)
  % Neutralization: 55%
[1]; Batch H: [CTC96] during incubation with virus 0.039 mg/ml (initial 0.078 mg/ml; after final dilution 0.019 ng/ml)
  % Neutralization: 18%
[1]; Batch I: [CTC96] during incubation with virus 0.019 mg/ml (initial 0.039 mg/ml; after final dilution 0.009 ng/ml)
  % Neutralization: 1%
[1]; Batch J: [CTC96] during incubation with virus 0.009 mg/ml (initial 0.019 mg/ml; after final dilution 0.0045 µg/ml)
  % Neutralization: 2%
[1]; Batch K: [CTC96] during incubation with virus 0.0045 mg/ml (initial 0.009 mg/ml; after final dilution 0.0023 ng/ml)
  % Neutralization: 1%
[2]; CTC 96 0.05%
  Mouse Survival, Lower Quartile: 84.00 days
  Mouse Survival, Means: 83.167 days
  Mouse Survival, Median: 84.00 days
  Mouse Survival, Upper Quartile: 84.00 days
  Mouse Weight Changes during the Experiment, Lower Quartile: 12.32%
  Mouse Weight Changes during the Experiment, Means: 13.12%
  Mouse Weight Changes during the Experiment, Median: 14.16%
  Mouse Weight Changes during the Experiment, Upper Quartile: 15.62%
  Mouse Status at the end of the Experiment: Alive: 11
  Mouse Status at the end of the Experiment: Dead: 1
[2]; CTC 96 0.2%
  Mouse Survival, Lower Quartile: 57.50 days
  Mouse Survival, Means: 69.83 days
  Mouse Survival, Median: 84.00 days
  Mouse Survival, Upper Quartile: 84.00 days
  Mouse Weight Changes during the Experiment, Lower Quartile: 11.48%
  Mouse Weight Changes during the Experiment, Means: 15.77%
  Mouse Weight Changes during the Experiment, Median: 11.77%
  Mouse Weight Changes during the Experiment, Upper Quartile: 24.80%
  Mouse Status at the end of the Experiment: Alive: 8
  Mouse Status at the end of the Experiment: Dead: 4
[2]; CTC 96 1%
  Mouse Survival, Lower Quartile: 84.00 days
  Mouse Survival, Means: 84.00 days
  Mouse Survival, Median: 84.00 days
  Mouse Survival, Upper Quartile: 84.00 days
  Mouse Weight Changes during the Experiment, Lower Quartile: 5.926%
  Mouse Weight Changes during the Experiment, Means: 9.96%
  Mouse Weight Changes during the Experiment, Median: 9.00%
  Mouse Weight Changes during the Experiment, Upper Quartile: 12.40%
  Mouse Status at the end of the Experiment: Alive: 12
  Mouse Status at the end of the Experiment: Dead: 0
[2]; all treatment groups, drug used only to inactivate HPV-11 in vitro
  effect on mouse weight gain: no effect
[2]; all treatment groups, drug used only to inactivate HPV-11 in vitro, listed as CTC 96
  effect on mouse mortality (number of deaths, length of survival): no differences among the treatment groups; also recorded: no effect
[3]; even at the highest concentration tested (5 μg/ml)
  toxicity or inhibition in control cultures receiving the diluted drugs: No toxicity or inhibition
[3]; culture with final dilution of the 0.625 mg/ml (residual 0.3 μg/ml)
  Control culture: # infected cells/area (~500 cells): 17 cells/area and 16 cells/area and 18 cells/area
[3]; culture with final dilution of the 1.25 mg/ml (residual 0.6 μg/ml)
  Control culture: # infected cells/area (~500 cells): 16 cells/area and 15 cells/area and 17 cells/area and 18 cells/area
[3]; culture with final dilution of the 2.5 mg/ml column (residual 1.25 μg/ml)
  Control culture: # infected cells/area (~500 cells): 17 cells/area and 18 cells/area and 15 cells/area and 16 cells/area
[3]; culture with final dilution of the 5 mg/ml column (residual 2.5 μg/ml)
  Control culture: # infected cells/area (~500 cells): 16 cells/area and 17 cells/area and 15 cells/area and 18 cells/area
[3]; culture with final dilution of the 10 mg/ml column (residual 5 μg/ml)
  Control culture: # infected cells/area (~500 cells): 15 cells/area and 16 cells/area and 17 cells/area
[3]; final dilution of the 0.625 mg/ml column (residual 0.3 μg/ml)
  Control culture: Average # infected cells/area: 16.50 cells/area
[3]; final dilution of the 1.25 mg/ml column (residual 0.6 μg/ml)
  Control culture: Average # infected cells/area: 16.38 cells/area
[3]; final dilution of the 2.5 mg/ml column (residual 1.25 μg/ml)
  Control culture: Average # infected cells/area: 16.50 cells/area
[3]; final dilution of the 5 mg/ml column (residual 2.5 μg/ml)
  Control culture: Average # infected cells/area: 16.25 cells/area
[3]; final dilution of the 10 mg/ml column (residual 5 μg/ml)
  Control culture: Average # infected cells/area: 16.00 cells/area
[4]; [5]
  % Neutralization: 15%
  % Neutralization (in parentheses: initial analysis): 7%
[4]; [6]
  % Neutralization: 25%
  % Neutralization (in parentheses: initial analysis): 43%
[4]; [7]
  % Neutralization: 41%
  % Neutralization (in parentheses: initial analysis): 56%
[4]; [8]
  % Neutralization: 56%
  % Neutralization (in parentheses: initial analysis): 64%
[4]; [9]
  % Neutralization: 65%
  % Neutralization (in parentheses: initial analysis): 76%
[4]; [10]
  % Neutralization: 80%
  % Neutralization (in parentheses: initial analysis): 100%
[4]; [CTC96] 1.25 μg/ml, contact time 2 minutes
  % Neutralization: 4%
[4]; [CTC96] 1.25 μg/ml, contact time 4 minutes
  % Neutralization: 17%
[4]; [CTC96] 1.25 μg/ml, contact time 8 minutes
  % Neutralization: 42%
[4]; [CTC96] 1.25 μg/ml, contact time 16 minutes
  % Neutralization: 61%
[4]; [CTC96] 1.25 μg/ml, contact time 32 minutes
  % Neutralization: 78%
[4]; [CTC96] 1.25 μg/ml, contact time 64 minutes
  % Neutralization: 94%
[4]; [CTC96] 2.5 μg/ml, contact time 2 minutes
  % Neutralization: 21%
[4]; [CTC96] 2.5 μg/ml, contact time 4 minutes
  % Neutralization: 25%
[4]; [CTC96] 2.5 μg/ml, contact time 8 minutes
  % Neutralization: 47%
[4]; [CTC96] 2.5 μg/ml, contact time 16 minutes
  % Neutralization: 72%
[4]; [CTC96] 2.5 μg/ml, contact time 32 minutes
  % Neutralization: 86%
[4]; [CTC96] 2.5 μg/ml, contact time 64 minutes
  % Neutralization: 100%
[4]; [CTC96] 5 μg/ml, contact time 2 minutes
  % Neutralization: 37%
[4]; [CTC96] 5 μg/ml, contact time 4 minutes
  % Neutralization: 52%
[4]; [CTC96] 5 μg/ml, contact time 8 minutes
  % Neutralization: 65%
[4]; [CTC96] 5 μg/ml, contact time 16 minutes
  % Neutralization: 78%
[4]; [CTC96] 5 μg/ml, contact time 32 minutes
  % Neutralization: 98%
[4]; [CTC96] 5 μg/ml, contact time 64 minutes
  % Neutralization: 100%
